ChEMBL document CHEMBL1909046, “DrugMatrix in vitro pharmacology data”

Experiments:
[1] = target: 5-hydroxytryptamine receptor 1B (Rattus norvegicus, UniProt P28564); type: cell membranes, Wistar, Cerebral cortex, Membrane; note: in other assays of this panel Not Active means under 50% inhibition at 10 µM
[2] = DRUGMATRIX: Sigma2 radioligand binding (ligand: [3H] Ifenprodil); type: cell membranes, Rattus norvegicus, Wistar, Brain, Membrane; settings: Not Active = under 50% inhibition at 10 µM
[3] = target: T1, Polyunsaturated fatty acid lipoxygenase ALOX15 (Oryctolagus cuniculus, UniProt P12530); experiment: biochemical; type: tissue-based, Reticulocytes; settings: reticulocytes;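 note: inhibition of 15-lipoxygenase enzyme activity measured with linoleic acid as the substrate; in other assays of this panel Not Active means under 50% inhibition at 10 µM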
T1 sequence (P12530 whole entry): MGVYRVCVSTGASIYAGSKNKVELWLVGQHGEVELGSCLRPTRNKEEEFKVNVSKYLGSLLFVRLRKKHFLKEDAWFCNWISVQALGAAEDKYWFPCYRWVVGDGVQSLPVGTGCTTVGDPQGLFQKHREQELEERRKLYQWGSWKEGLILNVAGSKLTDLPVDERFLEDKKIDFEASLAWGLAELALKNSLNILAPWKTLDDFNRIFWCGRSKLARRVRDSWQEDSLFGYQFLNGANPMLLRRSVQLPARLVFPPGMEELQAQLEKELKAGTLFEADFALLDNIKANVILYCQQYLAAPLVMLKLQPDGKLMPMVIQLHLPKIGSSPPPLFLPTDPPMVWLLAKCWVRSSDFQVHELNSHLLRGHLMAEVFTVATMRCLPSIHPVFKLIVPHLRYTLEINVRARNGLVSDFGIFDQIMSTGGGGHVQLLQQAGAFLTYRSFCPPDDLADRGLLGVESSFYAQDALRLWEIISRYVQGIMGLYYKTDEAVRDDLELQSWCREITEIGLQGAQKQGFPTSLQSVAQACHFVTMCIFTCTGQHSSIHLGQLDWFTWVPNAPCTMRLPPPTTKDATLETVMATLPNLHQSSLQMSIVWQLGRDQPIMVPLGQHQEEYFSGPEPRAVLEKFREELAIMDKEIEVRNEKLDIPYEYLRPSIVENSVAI

[4] = DRUGMATRIX: GABAA, Flunitrazepam, Central radioligand binding (ligand: [3H] Flunitrazepam); type: cell membranes, Rattus norvegicus, Wistar, Brain, Membrane; settings: Not Active = under 50% inhibition at 10 µM
[5] = target: Platelet-activating factor receptor (Homo sapiens, UniProt P25105); experiment: biochemical; type: tissue-based; settings: platelet; note: in other assays of this panel Not Active means under 50% inhibition at 10 µM
Chain of Platelet-activating factor receptor (P25105 whole entry): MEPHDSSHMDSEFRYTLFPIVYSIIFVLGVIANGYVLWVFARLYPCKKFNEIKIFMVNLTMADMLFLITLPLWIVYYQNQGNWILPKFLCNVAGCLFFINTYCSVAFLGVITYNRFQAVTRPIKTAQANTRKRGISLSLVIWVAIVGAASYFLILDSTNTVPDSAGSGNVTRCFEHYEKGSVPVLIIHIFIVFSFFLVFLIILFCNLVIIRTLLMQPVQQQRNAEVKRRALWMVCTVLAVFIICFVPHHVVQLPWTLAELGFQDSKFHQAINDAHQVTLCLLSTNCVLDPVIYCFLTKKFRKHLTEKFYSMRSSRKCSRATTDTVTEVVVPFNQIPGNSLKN

[6] = target: Matrix metalloproteinase-9 (Homo sapiens, UniProt P14780); type: cell-based;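 note: inhibition of isolated MMP-9 enzyme activity toward a synthetic peptide substrate, from the DrugMatrix protease screening panel; in other assays of this panel Not Active means under 50% inhibition at 10 µM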
Chain of Matrix metalloproteinase-9 (P14780 whole entry): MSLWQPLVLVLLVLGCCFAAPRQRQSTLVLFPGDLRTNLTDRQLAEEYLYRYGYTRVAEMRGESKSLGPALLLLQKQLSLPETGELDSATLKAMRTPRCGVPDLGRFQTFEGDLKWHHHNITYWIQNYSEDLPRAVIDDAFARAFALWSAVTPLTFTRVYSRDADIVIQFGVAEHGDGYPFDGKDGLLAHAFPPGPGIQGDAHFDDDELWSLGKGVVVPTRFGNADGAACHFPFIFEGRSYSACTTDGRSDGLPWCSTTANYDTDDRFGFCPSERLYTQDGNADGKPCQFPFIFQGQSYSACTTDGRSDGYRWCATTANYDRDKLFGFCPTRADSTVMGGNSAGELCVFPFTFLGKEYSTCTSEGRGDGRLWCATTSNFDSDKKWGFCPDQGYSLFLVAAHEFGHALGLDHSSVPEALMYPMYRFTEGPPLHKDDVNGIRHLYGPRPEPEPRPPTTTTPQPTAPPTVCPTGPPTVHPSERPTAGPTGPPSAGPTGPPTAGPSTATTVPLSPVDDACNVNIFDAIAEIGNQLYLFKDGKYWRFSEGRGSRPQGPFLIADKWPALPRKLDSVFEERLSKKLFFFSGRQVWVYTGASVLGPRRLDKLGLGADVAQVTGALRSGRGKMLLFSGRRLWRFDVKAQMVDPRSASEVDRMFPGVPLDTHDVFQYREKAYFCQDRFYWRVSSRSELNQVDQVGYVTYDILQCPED

[7] = DRUGMATRIX: Phorbol Ester radioligand binding (ligand: [3H] PDBu); type: cell membranes, Mus musculus, ICR, Brain, Membrane; settings: Not Active = under 50% inhibition at 10 µM
[8] = target: Substance-P receptor (Homo sapiens, UniProt P25103); type: cell membranes, CHO, Membrane; settings: cho; note: in other assays of this panel Not Active means under 50% inhibition at 10 µM
Chain of Substance-P receptor (P25103 whole entry): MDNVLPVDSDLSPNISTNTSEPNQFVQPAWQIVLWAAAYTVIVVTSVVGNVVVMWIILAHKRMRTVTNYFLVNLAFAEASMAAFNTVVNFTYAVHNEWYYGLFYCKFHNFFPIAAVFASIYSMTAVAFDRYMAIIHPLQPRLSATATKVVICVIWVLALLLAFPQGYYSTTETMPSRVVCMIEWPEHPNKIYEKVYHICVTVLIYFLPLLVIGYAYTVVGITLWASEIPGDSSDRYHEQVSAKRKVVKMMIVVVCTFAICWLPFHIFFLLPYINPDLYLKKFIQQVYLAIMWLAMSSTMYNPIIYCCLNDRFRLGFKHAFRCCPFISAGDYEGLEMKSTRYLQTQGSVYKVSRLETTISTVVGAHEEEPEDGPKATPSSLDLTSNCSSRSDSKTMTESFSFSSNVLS

[9] = target: Sigma non-opioid intracellular receptor 1 (Homo sapiens, UniProt Q99720); experiment: DRUGMATRIX: Sigma1 radioligand binding (ligand: [3H] Haloperidol); type: cell membranes, Jurkat, Membrane; settings: Not Active = under 50% inhibition at 10 µM
Chain of Sigma non-opioid intracellular receptor 1 (Q99720 whole entry): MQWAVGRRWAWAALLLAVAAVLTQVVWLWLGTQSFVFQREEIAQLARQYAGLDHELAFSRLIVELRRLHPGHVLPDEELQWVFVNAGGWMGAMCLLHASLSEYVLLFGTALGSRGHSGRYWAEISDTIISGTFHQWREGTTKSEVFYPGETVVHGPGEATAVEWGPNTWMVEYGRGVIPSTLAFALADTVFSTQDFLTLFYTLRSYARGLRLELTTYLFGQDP

[10] = DRUGMATRIX: Glutamate, Kainate radioligand binding (ligand: [3H] Kainic acid); type: cell membranes, Rattus norvegicus, Wistar, Brain, Membrane; settings: Not Active = under 50% inhibition at 10 µM
[11] = target: T2, Leukotriene C4 synthase (Cavia porcellus, UniProt A6XA80); experiment: biochemical; type: tissue-based, Lung
T2 sequence (A6XA80 whole entry): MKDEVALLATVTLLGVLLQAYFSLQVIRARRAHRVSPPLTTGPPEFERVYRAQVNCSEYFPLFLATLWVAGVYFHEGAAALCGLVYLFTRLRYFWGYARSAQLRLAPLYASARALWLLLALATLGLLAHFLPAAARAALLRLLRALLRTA

[12] = target: cGMP-specific 3',5'-cyclic phosphodiesterase (Homo sapiens, UniProt O76074); experiment: DRUGMATRIX: Phosphodiesterase PDE5 enzyme inhibition (substrate: [3H]cGMP + cGMP); type: tissue-based, Platelet; settings: platelet; Not Active = under 50% inhibition at 10 µM
[13] = target: T3, Estrogen receptor (Homo sapiens, UniProt P03372); settings: sf9; note: in other assays of this panel Not Active means under 50% inhibition at 10 µM
T3 sequence (P03372 whole entry): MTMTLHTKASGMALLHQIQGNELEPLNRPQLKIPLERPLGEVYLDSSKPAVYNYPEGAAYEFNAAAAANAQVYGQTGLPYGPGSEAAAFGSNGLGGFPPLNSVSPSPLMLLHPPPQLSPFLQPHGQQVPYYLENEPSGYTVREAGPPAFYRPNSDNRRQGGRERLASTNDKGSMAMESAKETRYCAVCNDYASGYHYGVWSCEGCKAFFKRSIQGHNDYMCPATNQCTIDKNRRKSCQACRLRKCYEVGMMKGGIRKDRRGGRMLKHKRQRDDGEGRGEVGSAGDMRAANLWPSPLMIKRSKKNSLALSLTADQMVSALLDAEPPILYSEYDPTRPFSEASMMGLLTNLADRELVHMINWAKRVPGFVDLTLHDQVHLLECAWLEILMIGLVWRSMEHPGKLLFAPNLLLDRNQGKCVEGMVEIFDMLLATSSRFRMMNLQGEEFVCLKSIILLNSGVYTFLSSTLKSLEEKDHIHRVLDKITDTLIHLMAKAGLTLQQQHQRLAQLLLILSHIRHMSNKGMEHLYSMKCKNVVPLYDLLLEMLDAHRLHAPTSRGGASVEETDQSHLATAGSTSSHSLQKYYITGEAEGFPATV

[14] = target: T4, Cytochrome P450 2A6 (Homo sapiens, UniProt P11509); settings: bti-tn-5b1-4; note: in other assays of this panel Not Active means under 50% inhibition at 10 µM
T4 sequence (P11509 whole entry): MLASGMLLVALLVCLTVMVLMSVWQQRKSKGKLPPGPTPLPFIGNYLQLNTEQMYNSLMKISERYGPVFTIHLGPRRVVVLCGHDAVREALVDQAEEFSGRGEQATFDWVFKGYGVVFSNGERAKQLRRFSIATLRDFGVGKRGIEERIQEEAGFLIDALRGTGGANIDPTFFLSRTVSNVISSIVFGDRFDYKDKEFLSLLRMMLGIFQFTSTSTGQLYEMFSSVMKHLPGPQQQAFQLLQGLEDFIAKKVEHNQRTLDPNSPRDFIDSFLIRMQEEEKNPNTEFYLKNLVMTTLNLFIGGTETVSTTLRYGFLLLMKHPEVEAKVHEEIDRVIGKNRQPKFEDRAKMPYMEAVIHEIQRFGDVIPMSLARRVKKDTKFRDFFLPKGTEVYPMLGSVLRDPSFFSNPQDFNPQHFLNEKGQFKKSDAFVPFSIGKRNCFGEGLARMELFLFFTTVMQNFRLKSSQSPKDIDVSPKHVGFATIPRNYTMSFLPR

[15] = target: Protein phosphatase 3 catalytic subunit alpha (Homo sapiens, UniProt Q08209); parameters: species or system Escherichia coli

Chain of 5-hydroxytryptamine receptor 1B (P28564 whole entry): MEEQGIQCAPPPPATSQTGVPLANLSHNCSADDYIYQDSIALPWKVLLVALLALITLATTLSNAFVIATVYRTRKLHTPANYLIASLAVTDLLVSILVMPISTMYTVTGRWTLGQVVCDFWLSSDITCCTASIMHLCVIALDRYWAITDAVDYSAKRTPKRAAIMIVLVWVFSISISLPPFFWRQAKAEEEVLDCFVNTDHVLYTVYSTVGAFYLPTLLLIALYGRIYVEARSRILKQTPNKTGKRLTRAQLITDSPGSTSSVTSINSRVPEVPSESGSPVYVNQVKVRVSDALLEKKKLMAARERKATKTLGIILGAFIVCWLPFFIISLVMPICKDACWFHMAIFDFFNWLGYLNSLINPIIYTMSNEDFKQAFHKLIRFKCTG

| Structure (SMILES) | IC50 [1] | IC50 [2] | Ki [2] | IC50 [3] | IC50 [4] | Ki [4] | IC50 [5] | IC50 [6] | IC50 [7] | Ki [7] | IC50 [8] | IC50 ([9]; jurkat) | IC50 [10] | Ki [10] | IC50 [11] | IC50 [12] | IC50 [13] | IC50 [14] | Ki [14] | IC50 [15] | further results |
| --- | --- | --- | --- | --- | --- | --- | --- | --- | --- | --- | --- | --- | --- | --- | --- | --- | --- | --- | --- | --- | --- |
| O=C1OC2(c3ccc(O)cc3Oc3cc(O)ccc32)c2ccccc21 [FLUORESCEIN] | Not Active | Not Active | Not Active | Not Active | Not Active | Not Active | Not Active | Not Active | Not Active | Not Active | Not Active | Not Active | Not Active | Not Active | Not Active | Not Active | Not Active | Not Active | Not Active | Not Active | – |
| Cc1c(-c2ccccc2)oc2c(C(=O)OCCN3CCCCC3)cccc2c1=O [FLAVOXATE] | Not Active | Not Active | Not Active | Not Active | Not Active | Not Active | Not Active | Not Active | Not Active | Not Active | Not Active | Not Active | Not Active | Not Active | Not Active | Not Active | Not Active | Not Active | Not Active | Not Active | – |
| CC1=Nc2ccc(Cl)cc2S(=O)(=O)N1 [DIAZOXIDE] | Not Active | Not Active | Not Active | Not Active | Not Active | Not Active | Not Active | Not Active | Not Active | Not Active | Not Active | Not Active | Not Active | Not Active | Not Active | Not Active | Not Active | Not Active | Not Active | Not Active | – |
| COC(=O)[C@H](c1ccccc1Cl)N1CCc2sccc2C1 [CLOPIDOGREL] | Not Active | Not Active | Not Active | Not Active | Not Active | Not Active | Not Active | Not Active | Not Active | Not Active | Not Active | Not Active | Not Active | Not Active | Not Active | Not Active | Not Active | Not Active | Not Active | Not Active | – |
| CN(C)CCCC1(c2ccc(F)cc2)OCc2cc(C#N)ccc21 (stereo unspecified) [CITALOPRAM] | Not Active | Not Active | Not Active | Not Active | Not Active | Not Active | Not Active | Not Active | Not Active | Not Active | Not Active | – | Not Active | Not Active | Not Active | Not Active | Not Active | Not Active | Not Active | Not Active | IC50 ([9]; read-out: IC50): 398 nM; Ki ([9]; read-out: Ki): 167 nM |
| NS(=O)(=O)c1cc2c(cc1Cl)NCNS2(=O)=O [HYDROCHLOROTHIAZIDE] | Not Active | Not Active | Not Active | Not Active | Not Active | Not Active | Not Active | Not Active | Not Active | Not Active | Not Active | Not Active | Not Active | Not Active | Not Active | Not Active | Not Active | Not Active | Not Active | Not Active | – |
| CN1C(C(=O)Nc2ccccn2)=C(O)c2ccccc2S1(=O)=O [PIROXICAM] | Not Active | Not Active | Not Active | Not Active | Not Active | Not Active | Not Active | Not Active | Not Active | Not Active | Not Active | Not Active | Not Active | Not Active | Not Active | Not Active | Not Active | Not Active | Not Active | Not Active | – |
| N#C[C@H](O[C@@H]1O[C@H](CO[C@@H]2O[C@H](CO)[C@@H](O)[C@H](O)[C@H]2O)[C@@H](O)[C@H](O)[C@H]1O)c1ccccc1 [AMYGDALIN] | Not Active | Not Active | Not Active | Not Active | Not Active | Not Active | Not Active | Not Active | Not Active | Not Active | Not Active | Not Active | Not Active | Not Active | Not Active | Not Active | Not Active | Not Active | Not Active | Not Active | – |
